Where a name gives a salt, the structure may show the parent alone.
Columns and labels:
[1] = In vitro dissociation of the water soluble taxane derivatives in blood plasma of rat; assay type: in vitro ADME, SD rats; conditions: 37° C.
Description: The obtained water soluble taxane derivatives were formulated as 0.2 mg/ml aqueous solutions. […] After 2 min, 5 min and 10 min of incubation, 0.2 ml of solutions were respectively taken from each of the samples, and added to acetonitrile (0.4 ml) cooled to −20° C. for precipitation of protein.

[2] = In vitro dissociation of the water soluble taxane derivatives in blood plasma of rabbit; assay type: in vitro ADME, New Zealand white rabbits; conditions: 37° C.
Description: The obtained water soluble taxane derivatives were formulated as 0.2 mg/ml aqueous solutions. […] After 5 min, 20 min and 60 min of incubation, 0.2 ml of solutions were respectively taken from each of the samples, and added to acetonitrile (0.4 ml) cooled to −20° C. for precipitation of protein.

[3] = test system: human ovarian cancer SK-OV-3; conditions: 24 mg/kg (paclitaxel 16 mg/kg) D0-4 IV; for Tumor volume (D0): D0, at grouping; for Tumor inhibitory percent (%) D22: P=0.000 compared to the control
Description: Test of the inhibitory activity of the water soluble paclitaxel derivatives on subcutaneously xenografted tumor of human ovarian cancer SK-OV-3 in nude mice: evaluating and comparing the inhibitory activity of the water soluble paclitaxel derivatives of the present invention, paclitaxel and Abraxane® on subcutaneously xenografted tumor of human ovarian cancer SK-OV-3 in nude mice.
Human ovarian cancer SK-OV-3 cells were subcutaneously inoculated to nude mice. After the tumor volume reached 100-150 mm^3, the animals were randomly divided into groups (D0), and administered with the water soluble paclitaxel derivatives of the present invention, paclitaxel, and Abraxane®, respectively once per day for 5 days. The tumor volume was measured 2-3 times per week, the animals were weighed and the data were recorded until day 22 (D22) after grouping.
The tumor volume (V) was calculated according to the equation: V=½×a×b^2, wherein a and b represent the length and the width, respectively.
T/C (%)=(T−T0)/(C−C0)×100, wherein T and C represent the tumor volume at the end of the experiment; and T0 and C0 represent the tumor volume at the beginning of the experiment.

Compound | dissociation percent ([1]; 2 min) [%] | dissociation percent ([1]; 5 min) [%] | dissociation percent ([1]; 10 min) [%] | dissociation percent ([2]; 5 min) [%] | dissociation percent ([2]; 20 min) [%] | dissociation percent ([2]; 60 min) [%] | Tumor volume (D0) [3] [mm^3] | Weight change (%) D4 [3] [%] | T/C (%) D22 [3] [%] | Tumor volume (D22) [3] [mm^3] | Tumor inhibitory percent (%) D22 [3] [%]
COC1C(=O)C2(C)C(OC)CC3OCC3(OC(C)=O)C2C(OC(=O)c2ccccc2)C2(O)CC(OC(=O)C(OC(=O)C(F)CCN(C)C)C(NC(=O)OC(C)(C)C)c3ccccc3)C(C)=C1C2(C)C.Cl [Compound 09, 2′-O-[4-(N,N-dimethyl)amino-2(R,S)-fluorobutyryl]cabazitaxel hydrochloride] | 47.8 | 89.1 | 100 | 83.2 | 97.1 | 100 |  |  |  |  | 
CCN(C)CC[C@@H](F)C(=O)O[C@@H](C(=O)O[C@H]1C[C@@]2(O)[C@@H](OC(=O)c3ccccc3)[C@@H]3[C@]4(OC(C)=O)CO[C@@H]4C[C@H](O)[C@@]3(C)C(=O)[C@H](OC(C)=O)C(=C1C)C2(C)C)[C@@H](NC(=O)c1ccccc1)c1ccccc1.CS(=O)(=O)O [Compound 16, 2′-O-[4-(N-methyl-N-ethyl)amino-2(R)-fluorobutyryl]paclitaxel methanesulfonate] |  |  |  |  |  |  | 133.6 ± 9.4 | −7.0 | −53 | 55.7 ± 10.6 | 137
2′-O-[5-(N-methyl-N-ethyl)amino-2(R)-2-difluoroethylvaleryl]docetaxel hydrochloride [Compound 12] | 43.6 | 75.6 | 89.6 | 35.2 | 61.3 | 73.2 |  |  |  |  | 
CC(=O)O[C@H]1C(=O)[C@@]2(C)[C@H]([C@H](OC(=O)c3ccccc3)[C@]3(O)C[C@H](OC(=O)[C@H](OC(=O)C(F)CCN(C)C)[C@@H](NC(=O)c4ccccc4)c4ccccc4)C(C)=C1C3(C)C)[C@]1(OC(C)=O)CO[C@@H]1C[C@@H]2O.CS(=O)(=O)O (stereo partly drawn) [Compound C3, 2′-O-[4-(N,N-dimethyl)amino-2(R,S)-fluorobutyryl]paclitaxel methanesulfonate] | 63.7 | 96.8 | 100 | 76.5 | 94.6 | 100 |  | −6.0 | −64 | 50.6 ± 9.7 | 165
CC(=O)O[C@H]1C(=O)[C@@]2(C)[C@H]([C@H](OC(=O)c3ccccc3)[C@]3(O)C[C@H](OC(=O)[C@H](OC(=O)[C@H](F)CCCN(C)C)[C@@H](NC(=O)c4ccccc4)c4ccccc4)C(C)=C1C3(C)C)[C@]1(OC(C)=O)CO[C@@H]1C[C@@H]2O.O=C(O)/C=C\C(=O)O [Compound 21, 2′-O-[5-(N,N-dimethyl)amino-2(R)-fluorovaleryl]paclitaxel maleate] |  |  |  |  |  |  | 135.8 ± 14.7 | −9.4 | −23 | 70.8 ± 16.8 | 60
COC1C(=O)C2(C)C(OC)CC3OCC3(OC(C)=O)C2C(OC(=O)c2ccccc2)C2(O)CC(OC(=O)C(OC(=O)C(CCN)C(F)F)C(NC(=O)OC(C)(C)C)c3ccccc3)C(C)=C1C2(C)C.O=S(=O)([O-])O.[Na+] [Compound 10, 2′-O-[4-amino-2(R)-difluoromethylbutyryl]cabazitaxel sodium bisulfate salt] | 45.2 | 86.5 | 96.8 | 38.1 | 63.2 | 80.3 |  |  |  |  | 
CC(=O)O[C@H]1C(=O)[C@@]2(C)[C@H]([C@H](OC(=O)c3ccccc3)[C@]3(O)C[C@H](OC(=O)[C@H](OC(=O)C(CCN(C)C)C(F)F)[C@@H](NC(=O)c4ccccc4)c4ccccc4)C(C)=C1C3(C)C)[C@]1(OC(C)=O)CO[C@@H]1C[C@@H]2O.Cl (stereo partly drawn) [Compound 20, 2′-O-[4-(N,N-dimethyl)amino-2(R,S)-2-difluoromethylbutyryl]paclitaxel hydrochloride] |  |  |  |  |  |  | 133.4 ± 12.6 | −8.4 | −35 | 61.2 ± 13.5 | 91
CC(=O)OC1C(=O)C2(C)C(O)CC3OCC3(OC(C)=O)C2C(OC(=O)c2ccccc2)C2(O)CC(OC(=O)C(OC(=O)C(CCN(C)C)C(F)(F)F)C(NC(=O)c3ccccc3)c3ccccc3)C(C)=C1C2(C)C.Cc1ccc(S(=O)(=O)O)cc1 [Compound 19, 2′-O-[4-(N,N-dimethyl)amino-2(R,S)-2-trifluoromethylbutyryl]paclitaxel p-toluene sulfonate] |  |  |  |  |  |  | 134.9 ± 11.4 | −8.9 | −48 | 57.3 ± 11.4 | 124
CCN(CC)CC[C@](C)(C(=O)O[C@@H](C(=O)O[C@H]1C[C@@]2(O)[C@@H](OC(=O)c3ccccc3)[C@@H]3[C@]4(OC(C)=O)CO[C@@H]4C[C@H](OC)[C@@]3(C)C(=O)[C@H](OC)C(=C1C)C2(C)C)[C@@H](NC(=O)OC(C)(C)C)c1ccccc1)C(F)(F)F.CS(=O)(=O)O [Compound 11, 2′-O-[4-(N,N-diethyl)amino-2-methyl-2(R)-2-trifluoromethylbutyryl]cabazitaxel methanesulfonate] | 52.3 | 89.6 | 97.2 | 56.2 | 80.5 | 92.1 |  |  |  |  | 
CC(=O)OC1C(=O)C2(C)C(O)CC3OCC3(OC(C)=O)C2C(OC(=O)c2ccccc2)C2(O)CC(OC(=O)C(OC(=O)C(CCCCN(C)C)C(F)F)C(NC(=O)c3ccccc3)c3ccccc3)C(C)=C1C2(C)C.O=S(=O)(O)O [Compound 22, 2′-O-[6-(N,N-dimethyl)amino-2(S)-2-difluoromethylhexanoyl]paclitaxel sulfate] |  |  |  |  |  |  | 133.8 ± 12.2 | −11.6 | −14 | 79.8 ± 12.8 | 36
CC(=O)O[C@H]1C(=O)[C@@]2(C)[C@H]([C@H](OC(=O)c3ccccc3)[C@]3(O)C[C@H](OC(=O)[C@H](OC(=O)[C@@H](F)CCN(C)C)[C@@H](NC(=O)c4ccccc4)c4ccccc4)C(C)=C1C3(C)C)[C@]1(OC(C)=O)CO[C@@H]1C[C@@H]2O.CS(=O)(=O)O [Compound C2, 2′-O-[4-(N,N-dimethyl)amino-2(S)-fluorobutyryl]paclitaxel methanesulfonate] | 62.8 | 96.5 | 100 | 69.7 | 98.1 | 100 |  | −5.8 | −61 | 51.2 ± 11.2 | 158
CCN(CC)CC[C@H](F)C(=O)O[C@@H](C(=O)O[C@H]1C[C@@]2(O)[C@@H](OC(=O)c3ccccc3)[C@@H]3[C@]4(OC(C)=O)CO[C@@H]4C[C@H](O)[C@@]3(C)C(=O)[C@H](OC(C)=O)C(=C1C)C2(C)C)[C@@H](NC(=O)c1ccccc1)c1ccccc1.O=C(O)/C=C/C(=O)O [Compound 17, 2′-O-[4-(N,N-diethyl)amino-2(S)-fluorobutyryl]paclitaxel fumarate] |  |  |  |  |  |  | 133.6 ± 9.4 | −8.1 | −44 | 55.7 ± 10.1 | 114
CO[C@H]1C(=O)[C@]2(C)[C@@H](OC)C[C@H]3OC[C@@]3(OC(C)=O)[C@H]2[C@H](OC(=O)c2ccccc2)[C@]2(O)C[C@H](OC(=O)[C@H](OC(=O)[C@@H](F)CCN(C)C)[C@@H](NC(=O)OC(C)(C)C)c3ccccc3)C(C)=C1C2(C)C.Cl [Compound 08, 2′-O-[4-(N,N-dimethyl)amino-2(S)-fluorobutyryl]cabazitaxel hydrochloride] | 47.6 | 87.6 | 100 | 89.9 | 93.2 | 100 |  |  |  |  | 
CO[C@H]1C(=O)[C@]2(C)[C@@H](OC)C[C@H]3OC[C@@]3(OC(C)=O)[C@H]2[C@H](OC(=O)c2ccccc2)[C@]2(O)C[C@H](OC(=O)[C@H](OC(=O)[C@H](F)CCN(C)C)[C@@H](NC(=O)OC(C)(C)C)c3ccccc3)C(C)=C1C2(C)C [Compound 07, 2′-O-[4-(N,N-dimethyl)amino-2(R)-fluorobutyryl]cabazitaxel hydrochloride] | 49.5 | 89.6 | 100 | 79.2 | 95.5 | 100 |  |  |  |  | 
CC(=O)O[C@H]1C(=O)[C@@]2(C)[C@H]([C@H](OC(=O)c3ccccc3)[C@]3(O)C[C@H](OC(=O)[C@H](OC(=O)C(F)CCN(C)C(C)C)[C@@H](NC(=O)c4ccccc4)c4ccccc4)C(C)=C1C3(C)C)[C@]1(OC(C)=O)CO[C@@H]1C[C@@H]2O.Cl (stereo partly drawn) [Compound 18, 2′-O-[4-(N-methyl-N-isopropyl)amino-2(R,S)-fluorobutyryl]paclitaxel hydrochloride] |  |  |  |  |  |  | 127.9 ± 11.4 | −10.3 | −38 | 60.4 ± 12.3 | 98

Source: patent publication US10239851B2 (priority 2014, dated 2019)
